Results on 87 compounds are retold here after a melting point compilation (Tetko et al.; mined from patent text by program, amines drawn as free bases though some values may be those of a salt).

Broadly, the melting point is the temperature of the solid-liquid transition. The compound `O=C(CCCCN1CCC(Cc2ccccc2)CC1)c1ccc2c(c1)C(=O)c1cc(C(=O)CCCCN3CCC(Cc4ccccc4)CC3)ccc1-2` gave a melting point of 124 to 126 °C. With `CC(C)n1nc(-c2c(-c3ccccc3)nn3ccc(OCC(=O)NC4CCC(O)CC4)cc23)ccc1=O` (configuration not stated) the figure was 146 to 148 °C; with `CCOc1cc([N+](=O)[O-])c2c(c1)C1(C)CCN(C)C1N2C` (configuration not stated), 106 to 108 °C. For the compound `CN(C)c1ccc(-c2cc3ccccc3o2)cc1`, the melting point was 178 to 181 °C. Take `O=S(=O)(CCCl)CCC(F)(F)C(F)(F)C(F)(F)C(F)(F)C(F)(F)C(F)(F)C(F)(F)C(F)(F)C(F)(F)C(F)(F)F`: the melting point was in the range of 147 to 148 °C. Compound `CCOC(=O)CC(=O)c1ccc(NC(C)=O)cc1` returned a melting point of 93 to 94 °C. Regarding `Cc1nc(C)n(-c2cc([C@@H]3C[C@H]3c3nc4ccccc4n3C)nc(C(N)=O)n2)n1` (relative stereo), the melting point lay in the range of 119 to 121 °C. Take `CC(=O)c1ccc(C2=NC[C@@H](O)[C@H](c3ccccc3)O2)cc1` (racemic): the melting point was 130 °C. Consider `Cc1cc(-n2nc(C(F)(F)F)cc2-c2ccc(S(C)(=O)=O)cc2)ccc1F`, for which the melting point lay in the range of 134 to 136 °C. `N#Cc1ccccc1S(=O)(=O)N1CCCC1c1ccc(F)cc1` (racemic) showed a melting point of 101 °C. On to `CCCc1sc(-c2nccs2)c2c1C(=O)CC(C)(C)C2`, for which the melting point lay within 69 to 72 °C. In turn, `C=CCOc1cc(N2C(=O)C3CCCCN3C2=O)c(F)cc1C#N` (configuration not stated) registered a melting point of 132 °C.

In turn, `CNc1nccc(-c2c(-c3ccc(F)cc3)ncn2C2CC(C)(C)NC(C)(C)C2)n1` returned a melting point of 221 to 222 °C.

As for `COC(=O)c1ccc2[nH]cc(C(=O)c3ccccc3)c2c1`, the melting point lay in the range of 271 to 273 °C. With `CC1(C)N(Cc2ccc(C(=O)Cl)cc2)C(=O)C(=O)N1Cc1ccc(C(=O)Cl)cc1` the figure was 232 to 235 °C; with `COC(=O)[C@@H]1CN(C#N)C[C@H]1c1ccc(OC)c(OC2CCCC2)c1` (relative stereo), 78 to 80 °C. `Nc1cccnc1Cc1ccccc1` gave a melting point of 84 to 86 °C. With `CCCCCCCNC(=O)Nc1ccccc1C(=O)NCCSc1nc(-c2ccccc2)c(-c2ccccc2)[nH]1` the figure was 285 to 288 °C; with `NC(=O)c1cccc(-c2cccc3cc(Cc4cc(F)cc(C(F)(F)F)c4)sc23)c1`, 147 to 148 °C; with `O=C(Nc1ccccn1)c1cccc(-c2cccc(OCCc3ccc(Cl)cc3Cl)n2)c1`, 113 to 115 °C. The same measure for `CCOC(=O)c1c(CN(CC)CC)nc2sc3c(c2c1-c1ccc(OC)c(OC)c1)CCN(C(=O)c1ccccc1)C3`: 86 to 87 °C; for `CN(C)Cc1nc2n(n1)-c1cccnc1N(c1ccccc1)C2`: 135 to 139 °C; for `O=C1CC(CO)N1c1ccccc1` (configuration not stated): 100 to 102 °C. With `O=C(c1ccccc1)c1ccc(Cl)cc1Cl` the figure was 41 to 43 °C; with `N#CC=C1CCN(c2ccc(N3C[C@H](CNC(=O)CI)OC3=O)cc2F)CC1`, 178 to 180 °C; with `NC(=O)c1cccc(NC(=O)C(F)(F)F)c1`, 262 to 263 °C.

`CCOc1ccc2ccccc2c1-c1c(OCC)ccc2ccccc12` displayed a melting point of 92 °C. `CC(=O)N(C)c1cc(C(=O)C=CN(C)C)ccc1F` registered a melting point of 131 to 132 °C. Regarding `COc1ccccc1-c1ccc2c(c1)CC[C@H]1N(C)C(=O)CC[C@]21C`, the melting point was 152 to 156 °C. `Fc1ccc([C@@H]2Cc3cnc(Nc4ccc(CCN5CCCCC5)cc4)nc3-c3ccccc32)cc1` gave a melting point of 185 to 188 °C. The same measure for `COC1(c2cccc(Oc3nc(-c4ccccc4)c(-c4ccc(S(N)(=O)=O)cc4)o3)c2)CCOCC1`: 145 to 147 °C; for `COC(=O)c1ccccc1Nc1c(Cl)cccc1Cl`: 100 to 103 °C; for `CN(C)C(=O)Nc1ccc(Br)cc1`: 168 to 170 °C. `Nc1ccccc1C(=O)NCCN1CCC(Nc2nc3ccccc3n2Cc2ccc(F)cc2)CC1` registered a melting point of 172 °C.

Consider `CN(C)CCNC(=O)c1cccc(-c2cccc3cc(Cc4cc(F)cc(Cl)c4)sc23)c1`, for which the melting point lay in the range of 126 to 127 °C. The compound `Cc1cccc(N(C)C(=O)COc2cc(C(F)(F)F)no2)c1` displayed a melting point of 54 to 55.5 °C. `CC(C)CNn1c(=O)c(Oc2ccc(F)cc2F)cc2cnc(SCc3ccccc3)nc21` displayed a melting point of 132 to 134 °C. With `Cc1ncc2[nH]c3ccccc3c2n1` the figure was 240 to 242 °C. Take `CC(C)(C)OC(=O)N[C@H]1CC[C@@H](NC(=O)OC(C)(C)C)CC1`: the melting point came out at 144 °C.

As for `O=C(CCl)Nc1ccc2ncnc(Nc3cccc(Br)c3)c2c1`, the melting point is above 300 °C.

With `O=C(OC1CCCCCCCCCCC1)c1ccccc1C(=O)OC1CCCCCCCCCCC1`, the melting point was 66 to 68 °C.

In turn, `COc1ccc(C(=O)N2CC[C@@H](O)C2=O)cc1` gave a melting point of 121 to 122 °C. With `O=C(OC1CCCCCCC1)n1c(-c2cscn2)nc2ccccc21` the figure was 85 to 88 °C. The compound `Cc1csc(=Nc2ccc(C(C)C(=O)O)c(Cl)c2)n1C` (configuration not stated) came in with a melting point of 132 to 133 °C. `O=C(O)C(=O)CC(=O)c1cccn1Cc1ccccc1` gave a melting point of 150 to 151 °C. `O=c1[nH]c2cc(OCC(O)CN3CCOCC3)ccc2c2oc3ccccc3c12` (configuration not stated) came in with a melting point of 228 to 230 °C.

Turning to `Cc1c(C(=O)c2ccc(Cl)cc2)oc2cccc(O)c12`, the melting point lay within 238 to 241 °C.

In the case of `COc1ccc(C2(C)CCC(=O)O2)cc1OC` (configuration not stated), the melting point is 71.2 °C. Compound `CCCCCN(C[C@H]1CCC[C@H](CN(CCCCC)C(=O)Nc2ccc(N(C)C)cc2)C1)C(=O)Nc1ccc(N(C)C)cc1` (relative stereo) displayed a melting point of 124 to 127 °C.

`O=C(CC(Cc1ccccc1)C(=O)O)c1cccc(Cl)c1` (configuration not stated) gave a melting point of 85 to 89 °C. As to `Cc1cc2c(cc1-c1cc(C=C3SC(=O)NC3=O)ccc1N(C)C)N(C(C)C)C(=O)CC2(C)C`, the melting point is 274 to 276 °C. Take `CC1(C)[C@@H](CNS(C)(=O)=O)CC[C@@]1(C)NCC(=O)N1C[C@@H](F)C[C@H]1C#N`: the melting point lay in the range of 157 to 160 °C.

The compound `COC(=O)c1ncn(C2CCCCO2)c1CC#N` (configuration not stated) gave a melting point of 98 to 99 °C. Compound `CC(C)Oc1cc(CO)n(Cc2ccc(Cl)cc2Cl)n1` had a melting point of 89 to 90 °C. Regarding `CCCCCCCCCCCCCCCCOCC(O)CN1CCC(c2ccccc2)CC1` (configuration not stated), the melting point is 64 to 65 °C. `COc1cc2c(cc1OC)-c1cc(=Nc3c(C)cc(C)cc3C)n(C(C)C)c(=O)n1CC2` showed a melting point of 178 to 179 °C. Turning to `O=C(O)Cc1ccc(Oc2ccc(Cl)nn2)cc1`, the melting point lay within 124 to 127 °C.

In turn, `CC(C)c1ccc(OC(C)(Cc2ccc(OCCNC(=O)c3ccc(-c4ccccn4)cc3)cc2)C(=O)O)cc1` (configuration not stated) displayed a melting point of 141 to 143 °C.

Regarding `COC(=O)c1cccc(CNC(=O)C2Cc3ccccc3N2S(=O)(=O)c2ccc(-c3cccc(C(F)(F)F)c3)cc2)c1` (configuration not stated), the melting point came out at 50 °C. Regarding `CC(=O)N(CC(=O)N1CC1C#N)c1ccccc1` (configuration not stated), the melting point lay within 69 to 75 °C. With `COc1ccc2c(=O)cc(-c3n[nH]c4ccccc34)oc2c1` the figure was 218 to 220 °C; with `CCCCn1c(C)cc(=O)n(C)c1=O`, 181 to 182 °C. The same measure for `Clc1ccc2c(c1)CCc1cccc3c1C2CN=C3` (configuration not stated): 106 °C; for `CCCCCCCCCCCCCCCC(=O)NC(Cc1cc(CP(=O)(O)O)cc(-c2ccccc2)c1)C(=O)O` (configuration not stated): 130 to 140 °C; for `CCCCCCOC1CCC(=O)N1` (configuration not stated): 35 to 37 °C.

With `Cc1cc(-c2ccc(F)cc2)co1`, the melting point is 95 to 97 °C.

Regarding `Cc1ccc(S(=O)(=O)N(C)F)cc1`, the melting point is 42 to 44 °C. `O=C1c2[nH]c3cc(O)ccc3c2CC1CC1CCN(Cc2ccccc2)CC1` (configuration not stated) yielded a melting point of 250 to 252 °C.

For `CCCCC(CC)CNc1cccc(-c2ccnc3c(C(=O)c4cccs4)cnn23)c1` (configuration not stated), the melting point was in the range of 134 to 138 °C. `CCc1c(S(=O)(=O)c2ccc(O)cc2)cnn1C`: the melting point is 188 to 190 °C.

As for `C=CCNc1nc(Cl)nc(N(CCCCCCN(c2nc(Cl)nc(NCC=C)n2)C2CC(C)(C)NC(C)(C)C2)C2CC(C)(C)NC(C)(C)C2)n1`, the melting point fell in the range of 210 to 211 °C. In the case of `CC1(CC2CCCC2)Cc2cc(CC(=O)O)c(Cl)c(Cl)c2C1=O` (configuration not stated), the melting point was 146 to 148 °C. `CNC1=Nc2ccc([N+](=O)[O-])cc2C(c2ccccc2Cl)=NC1` showed a melting point of 219 to 221 °C. Compound `NOCc1cnn(C(c2ccccc2)(c2ccccc2)c2ccccc2)c1` had a melting point of 133 to 136 °C. The same measure for `O=S1c2ccccc2Oc2ccc(-c3nnn[nH]3)cc21` (configuration not stated): 267 to 268 °C; for `CC(C)(C)NC(=O)c1ncc[nH]1`: 134 °C; for `COc1cccc2c(=O)nc(-c3ccccn3)sc12`: 191 °C. For `CCN(CC)c1ncc(C(=O)O)c2[nH]nc(C)c12`, the melting point lay within 85 to 88 °C. The same measure for `CCC(C)CCCCCCCCCCCCCCCCC(=O)O` (configuration not stated): 53 °C; for `N#Cc1ccc(-c2cn(-c3ccc(OCC(F)(F)F)cc3)cn2)cc1`: 179 °C. `Cc1c(C(=O)O)oc(=O)c2ccccc12` yielded a melting point of 248 to 249 °C. Regarding `Nc1nc2nc(-c3ccccc3)[nH]c2c2ncnn12`, the melting point is above 350 °C.

`COc1ccc(CNc2nc(-c3ccco3)c3ncn(Cc4ccc(OC)cc4)c3n2)cc1` yielded a melting point of 153 to 154 °C. The same measure for `CCN1C(=O)C(C)(C)C(=O)N(C)c2cc(CN(CCn3cc(C)c4occc4c3=O)Cc3scnc3C)ccc21`: 134 to 136 °C; for `Cc1ccc(S(=O)(=O)Oc2ccc(S(=O)(=O)C3Cc4ccccc4C3Cl)cc2)cc1` (configuration not stated): 176 °C. The compound `C#CCCCNC(=O)C(c1ccccc1)c1ccccc1` displayed a melting point of 90 °C. On to `NS(=O)(=O)c1cc(C(=O)O)cc(OCc2ccccc2)c1Cc1ccccc1`, for which the melting point was 250 to 251 °C.
